Measurements as given in patent US7608601B2, “4′-Substituted nucleoside derivatives as inhibitors of HCV RNA replication” (Roche Palo Alto LLC, priority 2001, dated 2009).

Assays:
[1] = system: Renilla Luciferase HCV replicon cells (2209-23); test: WST-1 cytotoxicity assay; type: cell-based, human; details: 2209-23 cells, three days
Experimental: For the assay procedure, Renilla Luciferase HCV replicon cells (2209-23) that cultured in Dulbecco's MEM (GibcoBRL cat no. 31966-021) with 5% fetal calf serum (FCS, GibcoBRL cat. no. 10106-169) were plated onto a 96-well plate at 5000 cells per well, and incubated overnight. Twenty-four hours later, different dilutions of chemical compounds in the growth medium were added to the cells, which were then further incubated at 37° C. for three days. The assay was carried out in duplicate plates, one in opaque white and one in transparent, in order to measure the activity and cytotoxicity of a chemical compound in parallel ensuring the activity seen is not due to reduction on cell proliferation.
For the cytotoxicity assay, WST-1 reagent from Roche Diagnostic (cat no. 1644807) was used. Ten microlitre of WST-1 reagent was added to each well including wells that contain media alone as blanks. Cells were then incubated for 1 to 1.5 hours at 37° C., and the OD value was measured by a 96-well plate reader at 450 nm (reference filter at 650 nm). Again CC50, the concentration of the drug required for reducing cell proliferation by 50% in relation to the untreated cell control value, can be calculated from the plot of percentage reduction of the WST-1 value vs. drug concentration.

[2] = system: HCV replicon RNA; test: Renilla luciferase HCV replicon assay; type: cell-based, Hepatitis C Virus; details: Huh7 2209-23 cells, three days

Compound: [N-]=[N+]=N[C@]1(CO)O[C@@H](n2ccc(N)nc2=O)[C@H](O)[C@@H]1O [compound 1, 4′-C-Azidocytidine]
- CC50(μM) WST-1, given as % at a concentration ([1]; at 100 μM): 0% (100 μM)
- IC50 ([2]; Hepatitis C virus, Huh-7, 72 h, concentration reducing replicon level by 50% vs untreated control): 1200 nM

Compound: C#C[C@]1(CO)O[C@@H](n2ccc(N)nc2=O)[C@H](O)[C@@H]1O.Cl [compound 3, 4′-C-Ethynylcytidine hydrochloride (1:1)]
- CC50(μM) WST-1, given as % at a concentration ([1]; at 20 μM): 0% (20 μM)
- IC50 (μM), given as % at a concentration ([2]; at 20 μM): 3% (20 μM)
